Results as given in PMC3344892, “NAD-Independent L-Lactate Dehydrogenase Is Required for L-Lactate Utilization in Pseudomonas stutzeri SDM” (PLoS ONE, 2012).

How the values were obtained:
[1] = molecular target: T1, L-iLDH (NAD-independent L-lactate dehydrogenase) from P. stutzeri SDM (Stutzerimonas stutzeri, UniProt I1SLB1); test: HPLC of flavin released by boiling; UV-visible spectrum; type: binding; conditions: native enzyme purified from membrane; recombinant enzyme similar; one FMN per subunit
T1 construct: gene lldD; full-length lldD in pETDuet-1 (HindIII/XhoI), expressed in E. coli C43(DE3), HisTrap purified (tag not described); also purified natively from membrane with Triton X-100; one FMN per subunit
T1 sequence (I1SLB1 1-391): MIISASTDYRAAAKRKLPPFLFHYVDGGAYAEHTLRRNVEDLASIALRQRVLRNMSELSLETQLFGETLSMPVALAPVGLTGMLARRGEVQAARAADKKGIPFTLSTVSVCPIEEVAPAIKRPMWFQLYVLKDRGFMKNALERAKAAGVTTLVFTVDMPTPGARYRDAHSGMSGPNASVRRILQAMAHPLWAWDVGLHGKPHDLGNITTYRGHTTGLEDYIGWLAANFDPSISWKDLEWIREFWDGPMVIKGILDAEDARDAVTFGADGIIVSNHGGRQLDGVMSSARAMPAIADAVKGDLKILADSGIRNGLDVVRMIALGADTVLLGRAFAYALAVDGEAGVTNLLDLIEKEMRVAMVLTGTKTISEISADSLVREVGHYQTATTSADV

[2] = molecular target: T1, L-iLDH (NAD-independent L-lactate dehydrogenase) from P. stutzeri SDM; test: MTT reduction at […] nm, double-reciprocal plots; type: biochemical
purified protein [3] = substrate: CC[C@H](O)C(=O)O; test: purified protein; type: biochemical, Stutzerimonas stutzeri; conditions: apparent, fixed 0.2 mM MTT as electron acceptor, 50 mM Tris-HCl pH 7.5, 30°C
purified protein [4] = substrate: C[C@H](O)C(=O)O; test: purified protein; type: biochemical, Stutzerimonas stutzeri; conditions: apparent, fixed 0.2 mM MTT as electron acceptor, 50 mM Tris-HCl pH 7.5, 30°C

Cc1cc2nc3c(=O)[nH]c(=O)nc-3n(C[C@H](O)[C@H](O)[C@H](O)COP(=O)(O)O)c2cc1C [FMN]
HPLC of flavin released by boiling; UV-visible spectrum [1]: the native enzyme contains one FMN per subunit

O=C(O)C(=O)O [oxalate]
Ki [2]: 1.9 ± 0.1 mM

NC(=O)C(=O)O [oxamate]
Ki [2]: 29 ± 1.7 mM

B1: L-iLDH (NAD-independent L-lactate dehydrogenase) from P. stutzeri SDM (Stutzerimonas stutzeri) (protein)
chain: MIISASTDYRAAAKRKLPPFLFHYVDGGAYAEHTLRRNVEDLASIALRQRVLRNMSELSLETQLFGETLSMPVALAPVGLTGMLARRGEVQAARAADKKGIPFTLSTVSVCPIEEVAPAIKRPMWFQLYVLKDRGFMKNALERAKAAGVTTLVFTVDMPTPGARYRDAHSGMSGPNASVRRILQAMAHPLWAWDVGLHGKPHDLGNITTYRGHTTGLEDYIGWLAANFDPSISWKDLEWIREFWDGPMVIKGILDAEDARDAVTFGADGIIVSNHGGRQLDGVMSSARAMPAIADAVKGDLKILADSGIRNGLDVVRMIALGADTVLLGRAFAYALAVDGEAGVTNLLDLIEKEMRVAMVLTGTKTISEISADSLVREVGHYQTATTSADV
notes: full-length lldD in pETDuet-1 (HindIII/XhoI), expressed in E. coli C43(DE3), HisTrap purified (tag not described); also purified natively from membrane with Triton X-100; one FMN per subunit
Km (purified protein [3]): 99 ± 3.9 µM | Km (purified protein [4]): 29 ± 0.65 µM
